Data reported in patent US20210323913A1, “SIGMA RECEPTOR BINDERS” (BOARD OF REGENTS, THE UNIVERSITY OF TEXAS SYSTEM, priority 2016, published 2021).
Read-outs that look alike come from different tables or passages of the source.

Key:
[1] = target: H2 (Homo sapiens, UniProt P25021); assay: Radioligand competition binding, H2; conditions: Table 5; Cheng-Prusoff from best fit IC50
[2] = target: 5-HT7 (Homo sapiens, UniProt P34969); assay: Radioligand competition binding, 5-HT7; conditions: Table 5; Cheng-Prusoff from best fit IC50
[3] = target: D5 (Homo sapiens, UniProt P21918); assay: Radioligand competition binding, D5; conditions: Table 5; Cheng-Prusoff from best fit IC50
[4] = target: sigma 2 receptor (Homo sapiens, UniProt Q5BJF2); assay: Sigma 2 receptor radioligand competition binding; conditions: for Ki ratio Sig1R/Sig2R: Table 1, ratio of Sig1R Ki to Sig2R Ki
[5] = target: Alpha2B (Homo sapiens, UniProt P18089); assay: Radioligand competition binding, Alpha2B; conditions: Table 5; Cheng-Prusoff from best fit IC50
[6] = target: sigma 1 receptor (Homo sapiens, UniProt Q99720); assay: Sigma 1 receptor radioligand competition binding
[7] = target: 5-ht5a (Homo sapiens, UniProt P47898); assay: Radioligand competition binding, 5-ht5a; conditions: Table 5; Cheng-Prusoff from best fit IC50
[8] = target: 5-HT2B (Homo sapiens, UniProt P41595); assay: Radioligand competition binding, 5-HT2B; conditions: Table 5; Cheng-Prusoff from best fit IC50
[9] = target: KOR (Homo sapiens, UniProt P41145); assay: Radioligand competition binding, KOR; conditions: Table 5; Cheng-Prusoff from best fit IC50; some values marked (AVE)
[10] = target: MOR (Homo sapiens, UniProt P35372); assay: Radioligand competition binding, MOR; conditions: Table 5; Cheng-Prusoff from best fit IC50
[11] = target: T1, 5-HT2C (Homo sapiens, UniProt P28335); assay: Radioligand competition binding, 5-HT2C; conditions: Table 5; Cheng-Prusoff from best fit IC50
T1 sequence (P28335 33-458): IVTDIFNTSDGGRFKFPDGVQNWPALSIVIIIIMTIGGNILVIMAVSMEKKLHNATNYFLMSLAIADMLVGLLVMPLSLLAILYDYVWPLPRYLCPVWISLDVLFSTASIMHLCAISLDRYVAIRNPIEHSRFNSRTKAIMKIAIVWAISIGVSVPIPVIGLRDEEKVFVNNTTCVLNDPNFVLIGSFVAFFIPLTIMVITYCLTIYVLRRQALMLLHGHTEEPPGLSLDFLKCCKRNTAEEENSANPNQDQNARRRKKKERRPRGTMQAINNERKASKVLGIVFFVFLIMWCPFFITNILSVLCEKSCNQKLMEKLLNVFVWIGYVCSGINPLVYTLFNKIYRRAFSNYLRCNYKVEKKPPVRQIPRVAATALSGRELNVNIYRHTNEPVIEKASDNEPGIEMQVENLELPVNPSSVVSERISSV

[12] = target: 5-HT2A (Homo sapiens, UniProt P28223); assay: Radioligand competition binding, 5-HT2A; conditions: Table 5; Cheng-Prusoff from best fit IC50
[13] = target: T2, 5-HT1A (Homo sapiens, UniProt P08908); assay: Radioligand competition binding, 5-HT1A; conditions: Table 5; Cheng-Prusoff from best fit IC50
T2 sequence (P08908 1-422): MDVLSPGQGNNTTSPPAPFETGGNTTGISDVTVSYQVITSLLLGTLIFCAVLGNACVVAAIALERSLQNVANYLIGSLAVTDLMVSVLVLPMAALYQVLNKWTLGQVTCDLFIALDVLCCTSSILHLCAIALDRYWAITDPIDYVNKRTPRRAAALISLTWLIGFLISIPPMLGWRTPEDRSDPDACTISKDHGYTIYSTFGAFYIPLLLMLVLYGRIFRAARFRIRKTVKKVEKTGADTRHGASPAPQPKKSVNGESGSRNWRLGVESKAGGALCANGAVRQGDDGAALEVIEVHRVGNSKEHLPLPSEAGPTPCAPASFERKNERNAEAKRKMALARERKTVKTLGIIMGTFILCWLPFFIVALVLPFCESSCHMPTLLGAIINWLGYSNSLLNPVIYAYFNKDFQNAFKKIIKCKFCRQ

[14] = target: PBR (UniProt P16257); assay: Radioligand competition binding, PBR; conditions: Table 5; Cheng-Prusoff from best fit IC50; one value marked (AVE)
[15] = target: 5-HT1B (Homo sapiens, UniProt P28222); assay: Radioligand competition binding, 5-HT1B; conditions: Table 5; Cheng-Prusoff from best fit IC50
[16] = target: SERT (Homo sapiens, UniProt P31645); assay: Radioligand competition binding, SERT; conditions: Table 5; Cheng-Prusoff from best fit IC50
[17] = target: D1 (Homo sapiens, UniProt P21728); assay: Radioligand competition binding, D1; conditions: Table 5; Cheng-Prusoff from best fit IC50; some values marked (AVE)
[18] = target: 5-HT6 (Homo sapiens, UniProt P50406); assay: Radioligand competition binding, 5-HT6; conditions: Table 5; Cheng-Prusoff from best fit IC50
[19] = target: 5-HT1D (Homo sapiens, UniProt P28221); assay: Radioligand competition binding, 5-HT1D; conditions: Table 5; Cheng-Prusoff from best fit IC50
[20] = target: M4 (Homo sapiens, UniProt P08173); assay: Radioligand competition binding, M4; conditions: Table 5; Cheng-Prusoff from best fit IC50; one value marked (AVE)
[21] = target: T3, D4 (Homo sapiens, UniProt P21917); assay: Radioligand competition binding, D4; conditions: Table 5; Cheng-Prusoff from best fit IC50
T3 sequence (P21917 1-419): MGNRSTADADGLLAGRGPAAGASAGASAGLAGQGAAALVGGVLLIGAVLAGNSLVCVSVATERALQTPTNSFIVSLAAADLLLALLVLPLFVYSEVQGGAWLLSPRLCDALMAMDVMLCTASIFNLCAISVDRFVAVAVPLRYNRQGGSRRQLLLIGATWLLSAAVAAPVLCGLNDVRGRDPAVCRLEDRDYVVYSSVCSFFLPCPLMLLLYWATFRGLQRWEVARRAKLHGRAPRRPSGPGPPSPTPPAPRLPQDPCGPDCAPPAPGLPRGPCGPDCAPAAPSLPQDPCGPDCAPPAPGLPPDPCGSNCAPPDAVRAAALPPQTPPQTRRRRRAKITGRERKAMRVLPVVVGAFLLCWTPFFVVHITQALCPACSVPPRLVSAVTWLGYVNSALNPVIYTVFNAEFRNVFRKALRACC

[22] = target: D3 (Homo sapiens, UniProt P35462); assay: Radioligand competition binding, D3; conditions: Table 5; Cheng-Prusoff from best fit IC50; one value marked (AVE)
[23] = target: Alpha1A (Homo sapiens, UniProt P35348); assay: Radioligand competition binding, Alpha1A; conditions: Table 5; Cheng-Prusoff from best fit IC50
[24] = target: M5 (Homo sapiens, UniProt P08912); assay: Radioligand competition binding, M5; conditions: Table 5; Cheng-Prusoff from best fit IC50
[25] = target: T4, Alpha2A (Homo sapiens, UniProt P08913); assay: Radioligand competition binding, Alpha2A; conditions: Table 5; Cheng-Prusoff from best fit IC50
T4 sequence (P08913 1-465): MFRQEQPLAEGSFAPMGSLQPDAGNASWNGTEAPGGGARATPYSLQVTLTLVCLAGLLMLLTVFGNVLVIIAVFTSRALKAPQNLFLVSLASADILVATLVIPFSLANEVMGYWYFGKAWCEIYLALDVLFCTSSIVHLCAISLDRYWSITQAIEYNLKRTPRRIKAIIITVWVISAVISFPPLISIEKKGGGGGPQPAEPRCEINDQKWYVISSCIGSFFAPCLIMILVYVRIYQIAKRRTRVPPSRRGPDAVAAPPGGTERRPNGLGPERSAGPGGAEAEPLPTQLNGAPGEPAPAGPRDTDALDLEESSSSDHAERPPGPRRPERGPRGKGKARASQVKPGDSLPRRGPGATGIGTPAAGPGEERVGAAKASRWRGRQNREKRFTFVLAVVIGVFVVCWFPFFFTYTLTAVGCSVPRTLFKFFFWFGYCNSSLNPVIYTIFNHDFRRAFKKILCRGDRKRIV

[26] = target: H4 (Homo sapiens, UniProt Q9H3N8); assay: Radioligand competition binding, H4; conditions: Table 5; Cheng-Prusoff from best fit IC50; value marked (AVE)
[27] = target: H3 (Homo sapiens, UniProt Q9Y5N1); assay: Radioligand competition binding, H3; conditions: Table 5; Cheng-Prusoff from best fit IC50
[28] = target: H1 (Homo sapiens, UniProt P35367); assay: Radioligand competition binding, H1; conditions: Table 5; Cheng-Prusoff from best fit IC50
[29] = target: Alpha1D (Homo sapiens, UniProt P25100); assay: Radioligand competition binding, Alpha1D; conditions: Table 5; Cheng-Prusoff from best fit IC50
[30] = Table 5, Cheng-Prusoff from best fit IC50, read-out: Ki Sigma 2
[31] = Table 1, 7-piperazinyl-tetrahydronaphthalene analogs, read-out: Ki (nM) Sig2R
[32] = Table 1, 7-piperazinyl-tetrahydronaphthalene analogs, read-out: Ki (nM) Sig1R

SMILES | Ki [1] [nM] | Ki [2] [nM] | Ki [3] [µM] | Ki [4, 30] [nM] | Ki [5] [nM] | Ki [7] [nM] | Ki [8] [nM] | Ki [9] [nM] | Ki [11] [nM] | Ki [12] [nM] | Ki [13] [nM] | Ki [14] [µM] | Ki [4, 31] [nM] | Ki ratio Sig1R/Sig2R [4] | Ki [15] [nM] | Ki [6, 32] [nM] | Ki [17] [nM] | Ki [18] [nM] | Ki [19] [nM] | Ki [21] [µM] | other results
CN(CCCO)C1CCCc2ccc(-c3ccc(C(F)(F)F)cc3)cc21 (stereo not drawn) [MDW-1-144, 3-(Methyl(7-(4-(trifluoromethyl)phenyl)-1,2,3,4-tetrahydronaphthalen-1-yl)amino)propan-1-ol] | 327 | 2400 | > 10 | 50 | 524 | > 10000 | 3590 | 154 |  |  |  |  |  |  |  |  |  |  |  |  | Ki ([6]; Table 5, Cheng-Prusoff from best fit IC50, read-out: Ki Sigma 1): 1270 nM; Ki [10]: 307 nM
CCN(CC)C(=O)CCN1CCN(c2ccc3c(c2)C(N(C)C(=O)OCc2ccccc2)CCC3)CC1 (stereo not drawn) [MDW-1-213, Benzyl (7-(4-(3-(diethylamino)-3-oxopropyl)piperazin-1-yl)-1,2,3,4-tetrahydronaphthalen-1-yl)(methyl)carbamate] | 333 | 828 |  | 7.2 |  | 1880 | 692 | 5350 | 2630 | 957 | 335 | 1.2 | 7 | 292 | 317 | 2100 | 4050 | 932 | 1360 | 0.319 | Ki [16]: > 10 µM; Ki [20]: 3.28 µM; Ki [22]: 852 nM
CCCN1CCN(c2ccc3c(c2)C(N(C)C(=O)OCc2ccccc2)CCC3)CC1 (stereo not drawn) [MDW-2-76, Benzyl methyl(7-(4-propylpiperazin-1-yl)-1,2,3,4-tetrahydronaphthalen-1-yl)carbamate] | 302 | 459 | 3.96 | 5.5 | 3330 |  | 100 |  | 762 | 315 | 156 | 8.33 | 6 | 36 | 362 | 200 | 690 | 778 | 135 | 6.66 | Ki [23]: 2360 nM; Ki [24]: 6.62 µM; Ki [25]: 1030 nM; Ki [26]: 5.88 µM; Ki [27]: 1350 nM; Ki [28]: 20 nM; Ki [29]: 2600 nM; Ki [22]: 438 nM
